Reference: patent publication US12643871B2, “Aryl formamide compound containing chiral sulfur oxide or salt thereof, preparation method, herbicidal composition and use thereof” (Qingdao Kingagroot Chemical Compound Co., Ltd., priority 2019, dated 2026)

Key:
Type in all cases: in vivo
[1] = system: Corn-Zhengdan 958; assay: Comparison experiment (post-emergence, Table 7), crop safety on corn; details: Corn-Zhengdan 958 (3.5 leaf)
Excerpt: (§1) If there is no clear marker, the post-seedling test conditions are the same as above, and the experimental results are shown in Tables 4-7.

[2] = system: Digitaria sanguinalis; assay: Comparison experiment (post-emergence) against racemate / S configuration; details: Table 6, post-seedling test conditions
Excerpt: (§2) The above growth control rates are fresh weight control rates.
(§3) Experiment on weeding effect in post-emergence stage: monocotyledonous and dicotyledonous weed seeds (Descurainia sophia, Capsella bursa-pastoris, Galium aparine, Stellaria media, Lithospermum arvense, Rorippa indica, Alopecurus aequalis, Beckmannia syzigachne, Sclerochloa dura, Phleum paniculatum, Bromus japonicus, Aegilops tauschii, Phalaris arundinacea, Amaranthus retroflexus, Chenopodiaceae, Commelina communis, Sonchus arvensis, convolvulus arvensis, Cirsium setosum, Solanum nigrum, Acalypha australis, Digitaria sanguinalis, Echinochloa crusgalli, Setaria viridis, Setaria glauca, Leptochloa chinensis, Monochoria vaginalis, Sagittaria trifolia, Scirpus juncoides, Cyperus rotundus, Cyperus iria, Cyperus difformis, Fimbristylis, Portulaca oleracea, Xanthium sibiricum, Pharbitis nil) and major crop seeds (wheat, corn, rice, soybean, cotton, oilseed rape, millet, sorghum, potato, sesame, ricinus) were placed in plastic pots filled with soil, then covered with 0.5-2 cm of soil, allowed to grow in a good greenhouse environment. After 2 weeks of sowing, the test plants were treated in the 2 leaf stage. The tested compounds of the present invention were respectively dissolved in acetone, then added with Tween 80 and 1.5 liter/ha of emulsifiable concentrate of methyl oleate as synergist, diluted with a certain amount of water to obtain a solution with a certain concentration, and sprayed with a spray tower onto the plants. After the application, the plants were cultured for 15 days in the greenhouse, and then the experimental results of the weeding were counted. The doses of the used compounds were 500, 250, 125, 60, 30, 15 g/ha, and the averages were obtained by repeating for three times.
as §1

[3] = system: Alopecurus japonicas; assay: as above; details: Table 6, post-seedling test conditions
Excerpt: as §2, §3, §1

[4] = system: Digitaria sanguinalis; assay: as above; details: Digitaria sanguinalis (3.5 leaf), 16DAA
[5] = system: Galium aparine; assay: Comparison experiment (post-emergence, Table 7); details: Galium aparine (5 branches)
Excerpt: as §1

[6] = system: Descurainia sophia; assay: Comparison experiment (post-emergence, Table 7); details: Descurainia sophia (12 leaf)
Excerpt: as §1

[7] = system: Capsella bursa-pastoris; assay: Comparison experiment (post-emergence, Table 7); details: Capsella bursa-pastoris (10-11 leaf)
Excerpt: as §1

[8] = system: Amaranthus retroflexus; assay: Comparison experiment (post-emergence, Table 7); details: Amaranthus retroflexus (6 leaf)
Excerpt: as §1

[9] = system: Echinochloa crusgali; assay: Comparison experiment (post-emergence, Table 7); details: Echinochloa crusgali (3 leaf)
Excerpt: as §1

[10] = system: Sinapis arvensis; assay: Comparison experiment (post-emergence, Table 7); details: Sinapis arvensis (3.5 leaf)
Excerpt: as §1

[11] = system: Veronica didyma; assay: Comparison experiment (post-emergence, Table 7); details: Veronica didyma (2 branches)
Excerpt: as §1

[12] = system: Malachium aquaticum; assay: Comparison experiment (post-emergence, Table 7); details: Malachium aquaticum (2 branches)
Excerpt: as §1

[13] = system: Green Setaria viridis; assay: Comparison experiment (post-emergence) against racemate / S configuration; details: for Results of comparison experiment (16DAA), weed control: Setaria viridis (4 leaf)
[14] = system: Abutilon theophrasti; assay: as above; details: Abutilon theophrasti (3.5 leaf), 16DAA
[15] = system: Leptochloa chinensis; assay: as above; details: Leptochloa chinensis (4.5 leaf), 16DAA

## CC[S+]([O-])c1c(C(F)(F)F)ccc(C(=O)Nc2nnc(C)o2)c1SC (centres unmarked) [Control Compound A′, reference compound]
[1]; 3 g/ha
  Results of comparison experiment (16DAA), crop damage: 0%
[1]; 6 g/ha
  Results of comparison experiment (16DAA), crop damage: 0%
[1]; 12 g/ha
  Results of comparison experiment (16DAA), crop damage: 0%
[1]; 24 g/ha
  Results of comparison experiment (16DAA), crop damage: 0%
[1]; 48 g/ha
  Results of comparison experiment (16DAA), crop damage: 0%
[2]
  Results of comparison experiment, Digitaria sanguinalis (30 g/ha): 50%
[3]
  Results of comparison experiment, Alopecurus japonicas (120 g/ha): 20%
[4]; 3 g/ha
  Results of comparison experiment (16DAA), weed control: 10%
[4]; 6 g/ha
  Results of comparison experiment (16DAA), weed control: 10%
[4]; 12 g/ha
  Results of comparison experiment (16DAA), weed control: 20%
[4]; 24 g/ha
  Results of comparison experiment (16DAA), weed control: 30%
[4]; 48 g/ha
  Results of comparison experiment (16DAA), weed control: 30%
[5]; 3 g/ha
  Results of comparison experiment (16DAA), weed control: 0%
[5]; 6 g/ha
  Results of comparison experiment (16DAA), weed control: 0%
[5]; 12 g/ha
  Results of comparison experiment (16DAA), weed control: 0%
[5]; 24 g/ha
  Results of comparison experiment (16DAA), weed control: 0%
[5]; 48 g/ha
  Results of comparison experiment (16DAA), weed control: 10%
[6]; 3 g/ha
  Results of comparison experiment (16DAA), weed control: 0%
[6]; 6 g/ha
  Results of comparison experiment (16DAA), weed control: 10%
[6]; 12 g/ha
  Results of comparison experiment (16DAA), weed control: 20%
[6]; 24 g/ha
  Results of comparison experiment (16DAA), weed control: 30%
[6]; 48 g/ha
  Results of comparison experiment (16DAA), weed control: 40%
[7]; 3 g/ha
  Results of comparison experiment (16DAA), weed control: 0%
[7]; 6 g/ha
  Results of comparison experiment (16DAA), weed control: 10%
[7]; 12 g/ha
  Results of comparison experiment (16DAA), weed control: 10%
[7]; 24 g/ha
  Results of comparison experiment (16DAA), weed control: 20%
[7]; 48 g/ha
  Results of comparison experiment (16DAA), weed control: 30%
[8]; 3 g/ha
  Results of comparison experiment (16DAA), weed control: 10%
[8]; 6 g/ha
  Results of comparison experiment (16DAA), weed control: 10%
[8]; 12 g/ha
  Results of comparison experiment (16DAA), weed control: 40%
[8]; 24 g/ha
  Results of comparison experiment (16DAA), weed control: 50%
[8]; 48 g/ha
  Results of comparison experiment (16DAA), weed control: 50%
[9]; 3 g/ha
  Results of comparison experiment (16DAA), weed control: 10%
[9]; 6 g/ha
  Results of comparison experiment (16DAA), weed control: 20%
[9]; 12 g/ha
  Results of comparison experiment (16DAA), weed control: 30%
[9]; 24 g/ha
  Results of comparison experiment (16DAA), weed control: 40%
[9]; 48 g/ha
  Results of comparison experiment (16DAA), weed control: 50%
[10]; 3 g/ha
  Results of comparison experiment (16DAA), weed control: 0%
[10]; 6 g/ha
  Results of comparison experiment (16DAA), weed control: 0%
[10]; 12 g/ha
  Results of comparison experiment (16DAA), weed control: 20%
[10]; 24 g/ha
  Results of comparison experiment (16DAA), weed control: 40%
[10]; 48 g/ha
  Results of comparison experiment (16DAA), weed control: 50%
[11]; 3 g/ha
  Results of comparison experiment (16DAA), weed control: 10%
[11]; 6 g/ha
  Results of comparison experiment (16DAA), weed control: 10%
[11]; 12 g/ha
  Results of comparison experiment (16DAA), weed control: 20%
[11]; 24 g/ha
  Results of comparison experiment (16DAA), weed control: 20%
[11]; 48 g/ha
  Results of comparison experiment (16DAA), weed control: 20%
[12]; 3 g/ha
  Results of comparison experiment (16DAA), weed control: 10%
[12]; 6 g/ha
  Results of comparison experiment (16DAA), weed control: 10%
[12]; 12 g/ha
  Results of comparison experiment (16DAA), weed control: 20%
[12]; 24 g/ha
  Results of comparison experiment (16DAA), weed control: 30%
[12]; 48 g/ha
  Results of comparison experiment (16DAA), weed control: 50%
[13]; 30 g/ha, Table 6, post-seedling test conditions
  Results of comparison experiment, Green Setaria viridis (30 g/ha): 90%
[13]; 3 g/ha
  Results of comparison experiment (16DAA), weed control: 0%
[13]; 6 g/ha
  Results of comparison experiment (16DAA), weed control: 0%
[13]; 12 g/ha
  Results of comparison experiment (16DAA), weed control: 10%
[13]; 24 g/ha
  Results of comparison experiment (16DAA), weed control: 40%
[13]; 48 g/ha
  Results of comparison experiment (16DAA), weed control: 50%
[14]; 3 g/ha
  Results of comparison experiment (16DAA), weed control: 10%
[14]; 6 g/ha
  Results of comparison experiment (16DAA), weed control: 20%
[14]; 12 g/ha
  Results of comparison experiment (16DAA), weed control: 30%
[14]; 24 g/ha
  Results of comparison experiment (16DAA), weed control: 40%
[14]; 48 g/ha
  Results of comparison experiment (16DAA), weed control: 50%
[15]; 3 g/ha
  Results of comparison experiment (16DAA), weed control: 0%
[15]; 6 g/ha
  Results of comparison experiment (16DAA), weed control: 0%
[15]; 12 g/ha
  Results of comparison experiment (16DAA), weed control: 0%
[15]; 24 g/ha
  Results of comparison experiment (16DAA), weed control: 10%
[15]; 48 g/ha
  Results of comparison experiment (16DAA), weed control: 20%
